From patent US4260607A, “Cephalosporin esters” (Takeda Chemical Industries, Ltd., priority 1976, dated 1981) come the findings set out here.

≈ marks a conversion by molar mass, not a printed value. Structures can show the parent of a compound that is named as a salt.

For one data set, the system named is S. aureus 1840. Description: MIC, S. aureus 1840. Type of data set: cell-based. To be noted: unit assumed.
In the next data set the test system is E. coli NIHJ JC-2. In words: MIC, E. coli NIHJ JC-2. Type of data set: cell-based. To be noted: unit assumed.
The subject of a further data set is E. coli 0-111. In words: MIC, E. coli 0-111. In kind it is cell-based. Conditions: unit assumed.
A further data set concerns P. vulgaris Eb. 58. Description: MIC, P. vulgaris Eb. 58. Type of data set: cell-based. Conditions: unit assumed.
The next data set relates to K. pneumoniae DT. Description: MIC, K. pneumoniae DT. In kind it is cell-based. Conditions: unit assumed.
Another data set has as its system S. aureus 209P. In words: MIC, S. aureus 209P. Type of data set: cell-based. Conditions: unit assumed.
For data set [1] the following is noted: in vivo, po; for Blood-level in rat, 0.5 hours: 30 min; for Blood-level in rat, 1 hour: 60 min; for Blood-level in rat, 2 hours: 120 min; for Hydrolysis of 4-position ester after absorption in blood: rat.

As for `CC1=C(C(=O)O)N2C(=O)[C@@H](NC(=O)[C@H](N)c3ccccc3)[C@H]2SC1` [Cephalexin, reference compound], the MIC with S. aureus 1840 is 12.5 µg/mL (≈ 36 µM); with E. coli NIHJ JC-2, 12.5 µg/mL (≈ 36 µM); in the data set on E. coli 0-111, 12.5 µg/mL (≈ 36 µM); against P. vulgaris Eb. 58, 12.5 µg/mL (≈ 36 µM); in the data set on K. pneumoniae DT, 6.25 µg/mL (≈ 18 µM).
For the molecule `Cc1nnc(SCC2=C(C(=O)O)N3C(=O)[C@@H](NC(=O)Cc4csc(=N)[nH]4)[C@H]3SC2)s1` [Compound (A)], the MIC with S. aureus 1840 was 0.78 µg/mL (≈ 1.61 µM); against S. aureus 209P it was 0.39 µg/mL (≈ 0.805 µM); in the data set on E. coli NIHJ JC-2, 1.56 µg/mL (≈ 3.22 µM); against E. coli 0-111, 0.39 µg/mL (≈ 0.805 µM); in the data set with P. vulgaris Eb. 58, 0.78 µg/mL (≈ 1.61 µM); with K. pneumoniae DT, 0.39 µg/mL (≈ 0.805 µM).
For `Cc1nnc(SCC2=C(C(=O)OCOC(=O)C(C)(C)C)N3C(=O)[C@@H](NC(=O)Cc4csc(=N)[nH]4)[C@H]3SC2)s1` [Example 1, 7β-(2-imino-4-thiazolin-4-yl)acetamido-3-(5-methyl-1,3,4-thiadizolyl-2-yl)thiomethyl-3-cephem-4-pivaloyloxymethyl carboxylate hydrochloric acid salt], in data set [1] (100 mg/kg), the “Blood-level in rat, 0.5 hours” value was 31.8 meg/ml; the “Blood-level in rat, 1 hour” value stood at 29.3 meg/ml; the “Blood-level in rat, 2 hours” value was determined as 22.0 meg/ml. The “Blood-level in rat, 4 hours” value in data set [1] (100 mg/kg, 240 min) was 8.7 meg/ml. Further, the “Hydrolysis of 4-position ester after absorption in blood” value in data set [1] is recorded as “hydrolyzed at 4-position carboxylic acid ester after being absorbed in blood”.
As to `CCOC(=O)OC(C)OC(=O)C1=C(CSc2nnc(C)s2)CS[C@@H]2[C@H](NC(=O)Cc3csc(=N)[nH]3)C(=O)N12` (some centres unmarked) [Example 2], in data set [1] (100 mg/kg), the “Blood-level in rat, 0.5 hours” value amounted to 32.4 meg/ml; the “Blood-level in rat, 1 hour” value is on record as 28.3 meg/ml; the “Blood-level in rat, 2 hours” value turned out to be 21.0 meg/ml. Besides, the “Hydrolysis of 4-position ester after absorption in blood” value in data set [1] is given as “hydrolyzed at 4-position carboxylic acid ester after being absorbed in blood”.

The MIC is the lowest concentration found to suppress growth.
